Like-named read-outs stand apart in the source and are kept apart here.
Assays:
Assay type in all cases: cell-based, human
CAOV3 cells [1] = test: CyQuant cell viability assay, CAOV3; conditions: for Efficacy: % loss of cell viability at maximum tested concentration
Experimental: (§1) Cells were seeded into 96-well plates and treated with serial dilutions with the designated compounds for 72 h. Medium was then removed from the wells, and the cells were frozen at -80 °C for storage. After thawing, cell viability was analyzed using the CyQUANT™ Cell Proliferation Assay for cells in culture (Invitrogen, ThermoFisher Scientific, Waltham, MA, USA), according to manufacturer’s instructions. The CyQuant assay utilizes a DNA binding fluorescent dye, and the signal is proportional to the number of live cells, which thus reflects the effect of drug treatment on both cell proliferation and cytotoxicity. To integrate these two measures (proliferation and cytotoxicity) into one simple term, we refer to CyQuant data as a measure of cell viability. Fluorescence intensity was measured using POLARstar OPTIMA microplate multi-detection plate reader (BMG LabTech, Cary, NC, USA) with settings specified by the manufacturer’s instructions.

OVCAR4 cells [2] = test: CyQuant cell viability assay, OVCAR4; conditions: for Efficacy: % loss of cell viability at maximum tested concentration
Experimental: as §1

FT282-C11 cells [3] = test: CyQuant cell viability assay, FT282-C11 (immortalized FTE control); conditions: for Efficacy: % loss of cell viability at maximum tested concentration; for Fold HGSOC cell selectivity: IC50 in FT282-C11 divided by the averaged IC50 values of CAOV3 and OVCAR4 cells
Experimental: as §1
To investigate the cancer cell selectivity of FOXM1 inhibitors, we utilized the immortalized (FTE) cell line FT282-C11 as non-malignant, cell of origin matched control. […] We tested a sub-set of FOXM1 inhibitors, including the three NB compounds and the two most widely used FOXM1 inhibitors, thiostrepton and FDI-6.

HGSOC cells = test: CyQuant cell viability assay, HGSOC cells (CAOV3 and OVCAR4), summary in words; conditions: summary of Table 3
Experimental: as §1
We investigated the effect of eight previously reported FOXM1 inhibitors on HGSOC cell viability. We utilized CAOV3 and OVCAR4 cells, which are validated to model HGSOC both in vitro and in vivo [38, 39], and measured the effect on cell viability using CyQuant assays. The data are summarized in Table 3 (drugs ordered alphabetically).

CAOV3 cells [4] = test: Drug washout study, CyQuant cell viability; conditions: Fig. 7E-F
Experimental: as §1
To assess FOXM1 protein expression, cells were seeded into 6-well plates and treated with DMSO or NB compounds the next day. At 3- or 6-h post-treatment, media was aspirated and cells were washed with PBS and incubated with drug-free media until reaching 24, 48, or 72 h post the initial treatment. At time points post-treatment, protein was isolated from washout and no washout (i.e., continuous treatment) treatment conditions and used for western blotting. To assess the effects of drug washout on cell viability, cells were seeded in 96-well plates, treated as described above, and cell viability was assessed at 72 h post the initial treatment using CyQuant assays.

[5] = system: FOXM1 targets (CCNB1, PLK1, AURKB, CDC25B); test: Western blot of FOXM1 target proteins in HGSOC cells; conditions: CAOV3 and OVCAR4; low micromolar treatments
Experimental: Whole cell proteins were extracted using radio-immunoprecipitation assay (RIPA) buffer (1X PBS, 1% NP-40, 0.5% sodium deoxycholate, 0.1% sodium dodecyl sulfate [SDS]) supplemented with protease and phosphatase inhibitors (Sigma-Aldrich). Briefly, media was removed from cells, cells were washed in ice cold PBS, and cells were lysed for 15 min in RIPA buffer, collected from the plate, and sonicated. The resulting extracts were centrifuged at 4 °C for 10 min at 16,100 × g to remove cell debris. In some cases (e.g., when measuring apoptotic markers such as cleaved PARP) floating cells were isolated in parallel and combined with the remainder of the cell sample prior to protein extraction. Protein concentrations were determined using the Pierce™ BCA Protein Assay Kit (Fisher Scientific, Waltham, MA, USA).
Equivalent amounts of protein per well, as determined by BCA assays, were loaded into Invitrogen™ NuPAGE™ 4–12%, Bis–Tris, 1.5 mm, mini protein gels (Fisher Scientific) or 7.5% Mini-Protein TGX precast protein gels (Bio-Rad, Hercules, CA, USA), and subsequently transferred to 0.45 µm polyvinylidene difluoride (PVDF) membranes (Millipore Sigma, St. Louis, MO, USA), using a wet transfer system. […] Quantification of protein expression was performed using Fiji software.

CAOV3 cells [6] = test: Incucyte kinetic analysis of live and dead cells; conditions: 0.1 μM
Experimental: CAOV3 cells were seeded into 96-well plates in DMEM media containing Incucyte Nuclight Rapid Red Dye (Sartorius, Bohemia, NY, USA, Cat #4717) 1:1,000 (for live cell nuclear labeling) and Incucyte Cytotox Green Dye (Sartorius Cat #4633) 250 μM (for counting of dead cells). The following day, cells were treated with DMSO or NB compounds at 0.1, 0.5 or 1.0 μM concentrations. After treatment, cells were incubated in a Incucyte S3 time lapse imager (Sartorius). We obtained 5 pictures per well every 2 h, for a total of 72 h. Data were analyzed and plotted using Incucyte Live-cell Imaging and Analysis software.

CAOV3 cells [7] = test: Caspase-3/7 activity assay, CAOV3; conditions: 24 h
Experimental: (§2) Cells were seeded into 6-well plates and treated with the designated compounds until the desired time point. Floating cells and trypsinized cells from the wells were collected, centrifuged at 500 × g, and washed with PBS. Cells were prepared using the Muse® Caspase-3/7 Kit (Luminex Corporation, Austin, TX, USA) according to the manufacturer’s instructions. Cells were analyzed by flow cytometry using the Guava® Muse® Cell Analyzer (Luminex Corporation).

OVCAR4 cells [8] = test: Caspase-3/7 activity assay, OVCAR4; conditions: 24 h
Experimental: as §2

FT282-C11 cells [9] = test: Caspase-3/7 activity assay, FT282-C11; conditions: 24 h
Experimental: as §2

[10] = Homo sapiens, Caov-3, 72 h, read-out: Potency [IC50 (µM)]
[11] = Homo sapiens, Caov-3, read-out: % Efficacy (maximum dose)
[12] = Homo sapiens, OVCAR-4, 72 h, read-out: Potency [IC50 (µM)]
[13] = Homo sapiens, OVCAR-4, read-out: % Efficacy (maximum dose)
[14] = CAOV3, % loss of cell viability at the maximum tested drug concentration (printed in parentheses in the cell), Table 3
[15] = CAOV3, CyQuant, Table 4, read-out: IC50
[16] = CAOV3, cell viability, CyQuant, 72 h, Table 3, read-out: Potency [IC50 (µM)]
[17] = OVCAR4, % loss of cell viability at the maximum tested drug concentration (printed in parentheses in the cell), Table 3
[18] = OVCAR4, CyQuant, Table 4, read-out: IC50
[19] = OVCAR4, cell viability, CyQuant, 72 h, Table 3, read-out: Potency [IC50 (µM)]
[20] = FT282-C11, CyQuant, Table 4, read-out: IC50

Row | SMILES | Efficacy (CAOV3 cells [1]; CAOV3, Table 4) | IC50 (CAOV3 cells [1]; [10]) | Emax (CAOV3 cells [1]; [11]) | IC50 (OVCAR4 cells [2]; [12]) | Emax (OVCAR4 cells [2]; [13]) | Efficacy (OVCAR4 cells [2]; OVCAR4, Table 4) | Efficacy (FT282-C11 cells [3]; FT282-C11, Table 4) | Fold HGSOC cell selectivity (FT282-C11 cells [3]) | potency and efficacy on HGSOC cell viability, in words (HGSOC cells) | % Efficacy (maximum dose) (CAOV3 cells [1]; [14]) | IC50 (CAOV3 cells [1]; [15]) | IC50 (CAOV3 cells [1]; [16]) | % Efficacy (maximum dose) (OVCAR4 cells [2]; [17]) | IC50 (OVCAR4 cells [2]; [18]) | IC50 (OVCAR4 cells [2]; [19]) | IC50 (FT282-C11 cells [3]; [20]) | also measured
1 | C=C(NC(=O)C(=C)NC(=O)c1csc(C2=N[C@@H]3c4csc(n4)[C@H]4NC(=O)c5csc(n5)[C@H]([C@](C)(O)[C@@H](C)O)NC(=O)[C@H]5CSC(=N5)/C(=C/C)NC(=O)[C@H]([C@@H](C)O)NC(=O)c5csc(n5)[C@]3(CC2)NC(=O)[C@H](C)NC(=O)C(=C)NC(=O)[C@H](C)NC(=O)[C@H]([C@@H](C)CC)N[C@@H]2C=Cc3c([C@H](C)O)cc(nc3[C@H]2O)C(=O)O[C@@H]4C)n1)C(N)=O [Thiostrepton] | 93% | 0.62 µM | 93% | 0.98 µM | 99% | 99% | 100% | 0.91 | high potency and efficacy |  |  |  |  |  |  |  | IC50 (CAOV3 cells [1]; Homo sapiens, Caov-3): 0.62 µM; IC50 (OVCAR4 cells [2]; Homo sapiens, OVCAR-4): 0.98 µM; IC50 (FT282-C11 cells [3]; Homo sapiens): 730 nM
2 | Nc1c(C(=O)Nc2ccc(F)cc2)sc2nc(-c3cccs3)cc(C(F)(F)F)c12 [FDI-6] | 61% |  |  |  |  | 61% | 76% | 1.6 | low potency | 61% (20 μM) | 9.1 µM | 9.1 µM | 61% (20 μM) | 4.7 µM | 4.7 µM | 11000 nM | 
3 | c1ccc(Nc2cc3ccccc3c3ccccc23)cc1 [N-phenylphenanthren-9-amine (NP9), N-phenylphenanthren-9-amine] |  | 23 µM | 85% | 39 µM | 100% |  |  |  | low potency |  |  |  |  |  |  |  | 
4 | CC[N+](C)(CC)CCCCCCOc1ccc(C(c2ccc(OCCCCCC[N+](C)(CC)CC)cc2)=C2C3C[C@H]4C[C@@H](C3)C[C@H]2C4)cc1 [NB-115] | 100% |  |  |  |  | 85% | 100% | 7.2 |  | 100% (10 μM) | 0.49 µM | 0.49 µM | 85% (10 μM) | 0.56 µM | 0.56 µM | 3800 nM | selectivity for HGSOC cells (FT282-C11 cells [3]; HGSOC cells vs FT282-C11, summary of Table 4): approximately tenfold; IC50 (CAOV3 cells [4]; continuous drug exposure 72 h, viability at 72 h, read-out: IC50 (CAOV3), no washout (72h)): 830 nM; IC50 (CAOV3 cells [4]; washout after 3 h, viability at 72 h post initial treatment, read-out: IC50 (CAOV3), 3 h drug exposure then washout (3h)): 2150 nM; IC50 (CAOV3 cells [4]; washout after 6 h, viability at 72 h post initial treatment, read-out: IC50 (CAOV3), 6 h drug exposure then washout (6h)): 2300 nM; FOXM1 targets at the protein level [5]: suppressed FOXM1 targets at the protein level; cell proliferation compared to the DMSO control (CAOV3 cells [6]): increased proliferation; caspase 3/7 activity (CAOV3 cells [7]): robust increase in caspase 3/7 activity; caspase 3/7 activity (OVCAR4 cells [8]): robust increase in caspase 3/7 activity; caspase 3/7 activity (FT282-C11 cells [9]): but not in FT282-C11 cells
5 | CC[C@@]1([C@@H]2O[C@@H]([C@H]3O[C@@](O)(CO)[C@H](C)C[C@@H]3C)C[C@@H]2C)CC[C@H]([C@]2(C)CC[C@]3(C[C@H](O)[C@@H](C)[C@@H]([C@@H](C)[C@@H](OC)[C@H](C)C(=O)O)O3)O2)O1 [Monensin, monensin] |  |  |  |  |  |  |  |  | high potency but low efficacy in one cell line (OVCAR4) |  |  |  |  |  |  |  | Emax (CAOV3 cells [1]; Homo sapiens, Caov-3, CAOV3, % loss of cell viability at the maximum tested drug concentration (printed in parentheses in the cell), Table 3, read-out: % Efficacy (maximum dose)): 100%; IC50 (CAOV3 cells [1]; Homo sapiens, Caov-3, CAOV3, cell viability, CyQuant, 72 h, Table 3, read-out: Potency [IC50 (µM)]): 0.1 µM; Emax (OVCAR4 cells [2]; Homo sapiens, OVCAR-4, OVCAR4, % loss of cell viability at the maximum tested drug concentration (printed in parentheses in the cell), Table 3, read-out: % Efficacy (maximum dose)): 52%; IC50 (OVCAR4 cells [2]; Homo sapiens, OVCAR-4, OVCAR4, cell viability, CyQuant, 72 h, Table 3, read-out: Potency [IC50 (µM)]): 0.024 µM

Reference: PMC11069232, “NB compounds are potent and efficacious FOXM1 inhibitors in high-grade serous ovarian cancer cells” (Journal of Ovarian Research, 2024)
